For data set [1], the target named is T1, Beta-secretase 1 (Homo sapiens, UniProt P56817).
Description: Inhibition of BACE1 mediated human Swedish amyloid precursor protein peptide hydrolysis by HTRF assay
For data set [2], the target named is T1, Beta-secretase 1. The data set is described as follows: Inhibition of BACE1 mediated human Swedish amyloid precursor protein peptide hydrolysis at 500 uM by HTRF assay. (In TR-FRET formats the signal depends on donor and acceptor labels being close together.)
The nature of data set [3]: Dissociation constant, pKa of the compound. It counts as physicochemical.
Data set [4] deals with T1, Beta-secretase 1. Briefly: Inhibition of BACE1 by fragment-based NMR screening method.
The target of data set [5] is T1, Beta-secretase 1. Briefly: Inhibition of BACE1 mediated hydrolysis of human amyloid precursor protein with Swedish and London mutation in HEK293 cells by ELISA. In kind it is cell-based. A general note: An ELISA detects its analyte on a solid surface through an enzyme-linked reagent.
Data set [6] in a line: Ratio of drug level in brain to plasma of rat at 10 mg/kg, po. In kind it is ADME, organism-based. On the set-up: dose 10 mg/kg, route oral.
For data set [7], the target named is T2, Cathepsin D (Homo sapiens, UniProt P07339). The data set is described as follows: Inhibition of human cathepsin D preincubated for 30 mins.
T2 sequence (P07339 65-162 limits assumed): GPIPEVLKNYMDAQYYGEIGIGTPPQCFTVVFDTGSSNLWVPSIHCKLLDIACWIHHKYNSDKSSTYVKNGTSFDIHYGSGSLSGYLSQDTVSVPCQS
T2 sequence (P07339 169-412 limits assumed): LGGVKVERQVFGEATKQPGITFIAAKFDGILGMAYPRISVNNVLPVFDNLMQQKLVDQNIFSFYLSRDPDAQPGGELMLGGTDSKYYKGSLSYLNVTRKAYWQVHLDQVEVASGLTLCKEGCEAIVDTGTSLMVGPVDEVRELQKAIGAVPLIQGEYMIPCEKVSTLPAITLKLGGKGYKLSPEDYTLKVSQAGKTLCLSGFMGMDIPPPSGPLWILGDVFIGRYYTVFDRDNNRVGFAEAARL
The nature of another data set: in vivo. Particulars: rat, plasma, po, 10 mg/kg.
Data set [8] deals with T2, Cathepsin D. The data set is described as follows: Inhibition of human cathepsin D at 50 uM preincubated for 30 mins.

One may read the IC50 as the concentration that gives 50% inhibition. Broadly, the inhibition is the percentage by which the read-out fell short of the control. Low values mean a response near the control, high ones a response far below the control. The pKa is the negative logarithm of the acid dissociation constant. Read a high pKa as a group that holds its proton tightly. Usually Kd stands for a measure of binding affinity in units of concentration. A word on the Kp: it is the ratio of the level in a tissue or fluid to that in plasma or blood. Usually Ki stands for the dissociation constant of the complex between target and ligand, obtained from inhibition or displacement. A lower Ki goes with tighter binding. By AUC is commonly meant the area under the concentration-time curve, a measure of exposure.

T1 sequence (P56817 whole entry): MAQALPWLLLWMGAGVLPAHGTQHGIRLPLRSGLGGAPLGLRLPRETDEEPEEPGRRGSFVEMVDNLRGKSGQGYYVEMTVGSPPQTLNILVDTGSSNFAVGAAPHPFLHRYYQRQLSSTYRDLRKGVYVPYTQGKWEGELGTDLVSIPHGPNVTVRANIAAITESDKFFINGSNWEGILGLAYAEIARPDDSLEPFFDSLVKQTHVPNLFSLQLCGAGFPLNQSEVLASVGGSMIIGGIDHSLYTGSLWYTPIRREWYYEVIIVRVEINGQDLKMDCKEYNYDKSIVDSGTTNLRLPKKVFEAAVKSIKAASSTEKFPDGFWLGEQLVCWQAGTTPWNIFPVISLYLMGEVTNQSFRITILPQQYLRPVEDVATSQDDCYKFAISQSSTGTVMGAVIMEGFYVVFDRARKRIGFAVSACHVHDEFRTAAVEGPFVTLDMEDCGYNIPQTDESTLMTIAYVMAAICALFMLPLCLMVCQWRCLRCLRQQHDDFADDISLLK

Molecule `CCCCNC(=O)NCc1ccc(CN2C(=N)NC(CCC3CCCCC3)(CC(C)C)C2=O)cc1` (racemic) showed an IC50 on Beta-secretase 1 [1] of 3 µM. With `CCCCNC(=O)NCc1ccc(CN2C(=N)NC(C)(Cc3ccccc3)C2=O)cc1` (racemic), the inhibition on Beta-secretase 1 [2] was found to be 64%. As for `CC1(C)C(=O)NC(=N)N1CCc1cccc(Cl)c1`, the pKa in data set [3] was 4.4.

As for `CCCCNC(=O)NCc1ccc(CN2C(=N)NC(C)(CC(C)C)C2=O)cc1` (stereo not drawn), on Beta-secretase 1 [1], it took 78 µM to reach half-maximal inhibition (IC50).

On Beta-secretase 1 [4], `CC(C)CC1(C)NC(=N)N(Cc2cccc(Cl)c2)C1=O` (stereo not drawn) returned a Kd of 123 µM. Also, the inhibition against Beta-secretase 1 [2] turned out to be 55%. In addition, the pKa in [3] amounted to 7.2. Regarding `CCCCNC(=O)NCc1ccc(CN2C(=N)NC(CCc3ccccc3)(CC(C)C)C2=O)cc1` (racemic), on Beta-secretase 1 [1], the IC50 came out at 50 µM. `CC(C)CC1(C)NC(=N)N(Cc2ccc(CNC(=O)Nc3ccc(C#N)cc3)cc2)C1=O` (racemic) had an IC50 against Beta-secretase 1 [1] of 7 µM. As for `CCCCNC(=O)NCc1ccc(CN2C(=N)NC(C)(CC3CCCCC3)C2=O)cc1` (racemic), at Beta-secretase 1 [1], the IC50 turned out to be 5 µM.

Take `CC(C)CC1(C)C(=O)NC(=N)N1Cc1cccc(Cl)c1` (stereo not drawn): the inhibition on Beta-secretase 1 [2] worked out at 6%. On Beta-secretase 1 [1], `CCCCNC(=O)NCc1ccc(CN2C(=N)NC(CCC3CCCCC3)(CC3CCCCC3)C2=O)cc1` (stereo not drawn) displayed an IC50 of 0.35 µM. `CN1C(=N)N[C@](CCC2CCCCC2)(CC2CCCCC2)C1=O`: the figures for the IC50 at Beta-secretase 1 [5] and against Beta-secretase 1 [1] were 2.6 µM and 0.605 µM, respectively. For the same molecule, the Kp in data set [6] turned out to be 0.9. The molecule also showed a Ki on Cathepsin D [7] of 0.74 µM. In “in vivo”, the AUC is 1 µM·h. As for `CCCCNC(=O)NCc1ccc(CN2C(=N)NC(CC3CCCCC3)(CC3CCCCC3)C2=O)cc1`, the concentration for half-maximal inhibition (IC50) against Beta-secretase 1 [1] amounted to 2.1 µM. As for `CN1C(=O)C(c2ccccc2)(c2ccccc2)N=C1N`, the Kp in [6] came out at 1.8. This molecule also came in with an inhibition against Cathepsin D [8] of 38%. For the same molecule, in “in vivo”, the AUC came out at 5 µM·h. At Beta-secretase 1 [4], `CC1(C)NC(=N)N(Cc2cccc(Cl)c2)C1=O` displayed an equilibrium dissociation constant (Kd) of 200 µM. The molecule also displayed an inhibition on Beta-secretase 1 [2] of 19%.

Values taken from ChEMBL document CHEMBL1154761 (J Med Chem, 2010).
